Test results reported in PMC4080982, “Interactions of antagonists with subtypes of inositol 1,4,5-trisphosphate (IP3) receptor” (British Journal of Pharmacology, 2014).

How the values were obtained:
[1] = system: cerebellar membranes (IP3R1); experiment: ^3H-IP3 binding to cerebellar membranes; details: ^3H-IP3 1.5 nM, in CLM
Description: (§1) Reactions were terminated after 5 min by centrifugation (20,000× g, 5 min) for membranes, or by centrifugation after addition of poly(ethylene glycol)-8000 [30% (w/v), 500 μL] and γ-globulin (30 μL, 25 mg·mL^−1) for NT. […] Results were fitted to Hill equations using Prism, from which IC50 values were calculated.

rat IP3R1 = molecular target: T1, rat IP3R1 (Rattus norvegicus, UniProt P29994); experiment: IP3-evoked Ca^2+ release from permeabilized DT40-IP3R1 cells; type: cell-based
T1 construct: different for NTs (NT2 > NT1 > > NT3) and full-length IP3Rs (IP3R3 > IP3R1 ≥ IP3R2); expressed in transfected cells
Description: (§2) We used DT40 cells lacking endogenous IP3Rs (Sugawara et al., [1997]), but stably expressing rat IP3R1 (GenBank accession number GQ233032.1; Pantazaka and Taylor, [2011]), mouse IP3R2 (GU980658.1; Tovey et al., [2010]) or rat IP3R3 (GQ233031.1; Rahman et al., [2009]). Cells were grown in suspension in RPMI 1640 medium supplemented with 10% FBS, 1% heat-inactivated chicken serum, 2 mM glutamine and 50 μM 2-mercaptoethanol at 37°C in humidified air containing 5% CO2. Cells were used or passaged when they reached a density of ∼1.5 × 10^6 cells mL^−1.
(§3) A low-affinity Ca^2+ indicator trapped within the ER of permeabilized DT40 cells was used to measure IP3-evoked Ca^2+ release (Tovey et al., [2006]; Saleem et al., [2012]). Briefly, the ER was loaded with indicator by incubating cells (∼5 × 10^7 mL^−1) in the dark with Mag-fluo-4AM (20 μM) in HEPES-buffered saline (HBS) containing 0.02% (v/v) Pluronic F127 for 1 h at 22°C. HBS had the following composition: 135 mM NaCl, 5.9 mM KCl, 11.6 mM HEPES, 1.5 mM CaCl2, 11.5 mM glucose, 1.2 mM MgCl2, pH 7.3. After permeabilization of the plasma membrane with saponin (10 μg·mL^−1, 4 min, 37°C) in Ca^2+-free cytosol-like medium (CLM), permeabilized cells were washed (650× g, 2 min) and resuspended (∼10^7 mL^−1) in Mg^2+-free CLM containing carbonyl cyanide 4-(trifluoromethoxy) phenylhydrazone (FCCP, 10 μM) to inhibit mitochondria, and supplemented with CaCl2 to give a final free [Ca^2+] of 220 nM after addition of 1.5 mM MgATP. Ca^2+-free CLM had the following composition: 2 mM NaCl, 140 mM KCl, 1 mM EGTA, 20 mM PIPES, 2 mM MgCl2, pH 7.0. Permeabilized cells were then distributed into 96-well plates (50 μL, 5 × 10^5 cells per well), centrifuged (300× g, 2 min) and used for experiments at 20°C. Addition of MgATP (1.5 mM) allowed Ca^2+ uptake by the ER, which was monitored at intervals of ∼1 s using a FlexStation-3 plate reader (MDS Analytical Devices, Berkshire, UK; Tovey et al., [2006]). After 2 min, when the ER had loaded to steady-state with Ca^2+, IP3 was added with CPA (10 μM) to inhibit further Ca^2+ uptake. IP3-evoked Ca^2+ release was expressed as a fraction of that released by ionomycin (1 μM; Tovey et al., [2006]). Similar methods were used to measure IP3-evoked Ca^2+ release from intact or permeabilized HEK cells (Tovey et al., [2008]). The timings of antagonist additions are described in the figure legends. The affinity of each competitive antagonist (pKD) was determined from the intercept on the abscissa of the Schild plot.
(§4) Concentration–effect relationships were fitted to Hill equations using Prism (version 5.0, GraphPad, San Diego, CA, USA), from which Hill coefficients (h), the fraction of the intracellular Ca^2+ stores released by a maximally effective concentrations of IP3, and pEC50 values were calculated.

[2] = system: permeabilized DT40-IP3R1-3 cells; experiment: Ca^2+ uptake and Ca^2+ content of the intracellular stores of permeabilized DT40 cells; type: cell-based
Description: Briefly, the ER was loaded with indicator by incubating cells (∼5 × 10^7 mL^−1) in the dark with Mag-fluo-4AM (20 μM) in HEPES-buffered saline (HBS) containing 0.02% (v/v) Pluronic F127 for 1 h at 22°C. […] Ca^2+-free CLM had the following composition: 2 mM NaCl, 140 mM KCl, 1 mM EGTA, 20 mM PIPES, 2 mM MgCl2, pH 7.0. Permeabilized cells were then distributed into 96-well plates (50 μL, 5 × 10^5 cells per well), centrifuged (300× g, 2 min) and used for experiments at 20°C. […] After 2 min, when the ER had loaded to steady-state with Ca^2+, IP3 was added with CPA (10 μM) to inhibit further Ca^2+ uptake. […] The timings of antagonist additions are described in the figure legends. The affinity of each competitive antagonist (pKD) was determined from the intercept on the abscissa of the Schild plot.

mouse IP3R2 = molecular target: T2, mouse IP3R2 (Mus musculus, UniProt Q9Z329); experiment: IP3-evoked Ca^2+ release from permeabilized DT40-IP3R2 cells; type: cell-based
T2 construct: different for NTs (NT2 > NT1 > > NT3) and full-length IP3Rs (IP3R3 > IP3R1 ≥ IP3R2); expressed in transfected cells
Description: as §2, §3, §4

rat IP3R3 = molecular target: T3, rat IP3R3 (Rattus norvegicus, UniProt Q63269); experiment: IP3-evoked Ca^2+ release from permeabilized DT40-IP3R3 cells; type: cell-based
T3 construct: different for NTs (NT2 > NT1 > > NT3) and full-length IP3Rs (IP3R3 > IP3R1 ≥ IP3R2); expressed in transfected cells
Description: as §2, §3, §4

HEK cells = experiment: Carbachol-evoked Ca^2+ signals in intact HEK cells; type: cell-based; details: Homo sapiens, HEK293; intact fluo-4-loaded HEK cells; control cells; read-out: pEC50 for the carbachol-evoked Ca^2+ signals (converted)
Description: as §3

[3] = molecular target: T4, NT2 (residues 1–604 of mouse IP3R2) (Mus musculus, UniProt Q9Z329); experiment: Equilibrium-competition binding with ^3H-IP3 to purified NT2; details: NT versus corresponding full-length IP3R
T4 construct: N-terminal fragments (NT, residues 1–604) of rat IP3R1, mouse IP3R2 and rat IP3R3; GST (cleaved yes); made in house; host or cells: E. coli BL21-CodonPlus (DE3)-RILP
Description: The plasmids used for bacterial expression of GST-tagged N-terminal fragments (NT, residues 1–604) of rat IP3R1, mouse IP3R2 and rat IP3R3 have been described, and their coding sequences have been confirmed (Khan et al., [2013]). Plasmids were transformed into BL21-CodonPlus (DE3)-RILP competent cells (Rossi and Taylor, [2011]), and grown for 12 h at 37°C in 20 mL of Luria-Bertani (LB) medium containing carbecillin (50 μg·mL^−1). The volume of medium was then increased to 1 L, and the incubation was continued at 37°C for 3–4 h until the OD600 reached 1–1.5. Protein expression was induced by addition of IPTG (0.5 mM) for 20 h at 15°C. Bacteria were harvested (6000× g, 5 min), washed twice with cold PBS, and the pellet was suspended (∼10^9 cells·mL^−1) in 50 mL of Tris-EDTA medium (TEM: 50 mM Tris, 1 mM EDTA, pH 8.3) supplemented with 10% PopCulture, 1 mM 2-mercaptoethanol and protease inhibitor cocktail (Roche, Burgess Hill, West Sussex, UK; 1 tablet per 50 mL). […]
as §1

[4] = IP3R1, AdA-evoked Ca^2+ release
[5] = IP3R1, IP3-evoked Ca^2+ release
[6] = IP3R1, heparin 400 μg·mL^−1, Δ = control – response with antagonist
[7] = IP3R2, IP3-evoked Ca^2+ release
[8] = IP3R3, AdA-evoked Ca^2+ release

T3 sequence (Q63269 whole entry): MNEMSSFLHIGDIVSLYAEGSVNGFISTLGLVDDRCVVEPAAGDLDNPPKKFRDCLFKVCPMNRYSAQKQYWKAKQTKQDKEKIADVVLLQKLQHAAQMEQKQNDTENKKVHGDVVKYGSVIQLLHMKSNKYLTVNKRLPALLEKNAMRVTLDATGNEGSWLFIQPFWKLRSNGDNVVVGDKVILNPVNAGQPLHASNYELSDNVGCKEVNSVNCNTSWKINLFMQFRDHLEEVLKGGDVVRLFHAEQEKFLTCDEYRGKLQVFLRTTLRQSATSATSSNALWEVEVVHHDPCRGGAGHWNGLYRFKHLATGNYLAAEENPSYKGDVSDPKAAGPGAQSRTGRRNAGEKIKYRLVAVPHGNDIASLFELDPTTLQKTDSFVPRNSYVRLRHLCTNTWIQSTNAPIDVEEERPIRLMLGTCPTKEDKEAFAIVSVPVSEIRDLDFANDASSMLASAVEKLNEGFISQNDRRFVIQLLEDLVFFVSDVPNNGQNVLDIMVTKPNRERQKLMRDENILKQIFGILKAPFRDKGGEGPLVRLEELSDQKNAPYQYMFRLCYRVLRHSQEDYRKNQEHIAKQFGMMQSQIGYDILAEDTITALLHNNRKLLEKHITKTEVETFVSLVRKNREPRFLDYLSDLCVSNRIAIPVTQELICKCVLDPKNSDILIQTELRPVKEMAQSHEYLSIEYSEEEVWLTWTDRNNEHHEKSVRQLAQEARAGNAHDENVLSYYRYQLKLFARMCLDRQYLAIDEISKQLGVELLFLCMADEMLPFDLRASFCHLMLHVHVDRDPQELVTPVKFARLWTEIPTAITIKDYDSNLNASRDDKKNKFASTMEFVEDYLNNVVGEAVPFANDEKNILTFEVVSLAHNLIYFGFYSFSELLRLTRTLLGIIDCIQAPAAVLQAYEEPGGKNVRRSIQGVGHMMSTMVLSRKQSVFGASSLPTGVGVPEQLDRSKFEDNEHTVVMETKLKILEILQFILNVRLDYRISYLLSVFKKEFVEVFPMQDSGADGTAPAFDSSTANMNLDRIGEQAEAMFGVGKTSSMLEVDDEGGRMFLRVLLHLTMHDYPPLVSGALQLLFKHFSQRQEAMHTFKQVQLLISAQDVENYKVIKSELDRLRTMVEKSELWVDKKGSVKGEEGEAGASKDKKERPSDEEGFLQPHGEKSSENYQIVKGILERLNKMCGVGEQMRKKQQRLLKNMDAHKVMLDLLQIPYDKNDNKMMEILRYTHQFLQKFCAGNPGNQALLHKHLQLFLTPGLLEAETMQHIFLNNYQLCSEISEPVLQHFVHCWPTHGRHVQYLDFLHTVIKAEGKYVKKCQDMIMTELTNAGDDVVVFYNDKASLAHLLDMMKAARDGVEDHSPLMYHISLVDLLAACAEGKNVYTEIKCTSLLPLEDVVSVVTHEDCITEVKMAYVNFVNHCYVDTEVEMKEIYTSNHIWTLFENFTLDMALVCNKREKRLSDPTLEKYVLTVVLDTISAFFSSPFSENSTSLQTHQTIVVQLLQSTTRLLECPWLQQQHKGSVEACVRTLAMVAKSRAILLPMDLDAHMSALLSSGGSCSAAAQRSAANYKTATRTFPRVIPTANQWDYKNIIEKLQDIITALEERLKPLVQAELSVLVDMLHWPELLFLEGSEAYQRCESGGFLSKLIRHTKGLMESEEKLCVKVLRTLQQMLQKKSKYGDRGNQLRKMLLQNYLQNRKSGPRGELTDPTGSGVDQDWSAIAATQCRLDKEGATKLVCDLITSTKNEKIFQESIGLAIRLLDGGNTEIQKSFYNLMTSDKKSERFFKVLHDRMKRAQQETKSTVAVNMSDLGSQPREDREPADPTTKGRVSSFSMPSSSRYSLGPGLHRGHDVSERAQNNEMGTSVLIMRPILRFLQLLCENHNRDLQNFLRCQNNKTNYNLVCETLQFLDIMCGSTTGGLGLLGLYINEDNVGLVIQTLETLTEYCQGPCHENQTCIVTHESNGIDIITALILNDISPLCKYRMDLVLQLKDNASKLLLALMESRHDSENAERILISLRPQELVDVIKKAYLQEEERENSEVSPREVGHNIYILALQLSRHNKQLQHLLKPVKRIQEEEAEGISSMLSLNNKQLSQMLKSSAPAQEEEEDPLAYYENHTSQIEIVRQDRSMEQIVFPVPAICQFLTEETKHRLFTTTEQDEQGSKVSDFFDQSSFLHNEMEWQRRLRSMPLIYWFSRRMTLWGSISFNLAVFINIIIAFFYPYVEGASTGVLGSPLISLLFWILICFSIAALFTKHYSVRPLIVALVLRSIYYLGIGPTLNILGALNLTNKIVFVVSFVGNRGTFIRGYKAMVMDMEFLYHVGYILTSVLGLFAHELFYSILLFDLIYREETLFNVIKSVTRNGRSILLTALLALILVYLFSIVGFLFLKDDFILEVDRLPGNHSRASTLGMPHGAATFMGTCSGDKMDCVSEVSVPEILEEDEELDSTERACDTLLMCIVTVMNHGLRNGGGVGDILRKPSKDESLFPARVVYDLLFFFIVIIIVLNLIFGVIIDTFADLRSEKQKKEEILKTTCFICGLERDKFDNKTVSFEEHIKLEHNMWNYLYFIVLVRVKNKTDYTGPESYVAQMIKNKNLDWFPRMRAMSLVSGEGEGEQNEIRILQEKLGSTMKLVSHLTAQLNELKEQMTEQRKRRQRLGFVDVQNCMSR
T4 sequence (Q9Z329 1-604): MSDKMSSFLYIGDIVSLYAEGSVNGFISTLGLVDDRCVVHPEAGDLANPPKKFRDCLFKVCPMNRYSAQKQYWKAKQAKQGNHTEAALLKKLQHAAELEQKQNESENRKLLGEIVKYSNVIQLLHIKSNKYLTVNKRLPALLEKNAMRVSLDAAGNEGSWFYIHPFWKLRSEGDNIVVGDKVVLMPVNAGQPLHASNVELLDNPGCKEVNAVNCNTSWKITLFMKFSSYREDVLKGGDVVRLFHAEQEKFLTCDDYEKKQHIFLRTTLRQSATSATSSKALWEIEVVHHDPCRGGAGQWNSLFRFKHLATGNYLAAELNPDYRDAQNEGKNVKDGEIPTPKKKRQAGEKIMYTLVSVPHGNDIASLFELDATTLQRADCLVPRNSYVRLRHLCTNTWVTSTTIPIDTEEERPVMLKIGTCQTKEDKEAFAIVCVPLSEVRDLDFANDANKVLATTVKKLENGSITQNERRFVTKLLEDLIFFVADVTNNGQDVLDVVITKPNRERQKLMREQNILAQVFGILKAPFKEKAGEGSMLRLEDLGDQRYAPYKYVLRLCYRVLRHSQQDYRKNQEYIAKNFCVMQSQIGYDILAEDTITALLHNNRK

## NCCOB(c1ccccc1)c1ccccc1 [2-APB, 2-aminoethoxydiphenyl borate]
[1]
  effect on binding of ^3H-IP3 to cerebellar membranes: unaffected
Rat IP3R1; IP3R1, 2-APB 50 μM
  ΔMax: 0 ± 4%
Rat IP3R1; IP3R1, 2-APB 50 μM added 35 s before IP3
  ΔpEC50: 0.84 ± 0.12 M
[2]; permeabilized DT40-IP3R1 cells, 50 μM 2-APB
  effect on Ca^2+ uptake by the ER: no effect
[2]; permeabilized DT40-IP3R1 cells, 2-APB concentrations higher than 50 μM
  effect on steady-state Ca^2+ content of the ER: reduced the steady-state Ca^2+ content
Mouse IP3R2; DT40-IP3R2 cells, 2-APB 50 μM
  effect on IP3-evoked Ca^2+ release: no significant effect
Mouse IP3R2; IP3R2, 2-APB 50 μM
  ΔMax: 0 ± 4%
Mouse IP3R2; IP3R2, 2-APB 100 μM
  effect on IP3-evoked Ca^2+ release: no effect
Rat IP3R3; DT40-IP3R3 cells, 2-APB 50 μM
  effect on IP3-evoked Ca^2+ release: no significant effect
Rat IP3R3; IP3R3, 2-APB 50 μM
  ΔMax: 8 ± 4%
  ΔpEC50: 0.02 ± 0.09 M
Rat IP3R3; IP3R3, 2-APB 100 μM
  effect on IP3-evoked Ca^2+ release: some inhibition

## Cn1c(=O)c2c(ncn2C)n(C)c1=O [Caffeine]
[1]
  effect on binding of ^3H-IP3 to cerebellar membranes: without affecting
[2]; DT40-IP3R1-3 cells, caffeine 70 mM added 2 min before ATP
  effect on Ca^2+ content of the intracellular stores: significantly reduced

## C[N+](C)(C)CCOC(N)=O [carbachol, Carbachol]
HEK cells
  EC50: 10200 nM

## Nc1ncnc2c1ncn2[C@@H]1O[C@H](CO)[C@@H](O[C@H]2O[C@H](CO)[C@@H](OP(=O)(O)O)[C@H](OP(=O)(O)O)[C@H]2O)[C@H]1OP(=O)(O)O [AdA, adenophostin A]
Rat IP3R1; permeabilized DT40-IP3R1 cells, read-out: pEC50 (IP3 or AdA-evoked Ca^2+ release) (converted)
  EC50: 4.47 nM
Rat IP3R3; permeabilized DT40-IP3R3 cells, read-out: pEC50 (IP3 or AdA-evoked Ca^2+ release) (converted)
  EC50: 19.5 nM

## Heparin
Rat IP3R1; [4]
  KD for heparin (Schild plot): 6.9 µg/mL
  slope of the Schild plots: 0.94 ± 0.03
Rat IP3R1; [5]
  KD for heparin (Schild plot): 4.1 µg/mL
  slope of the Schild plots: 0.95 ± 0.02
Rat IP3R1; [6]
  ΔMax: −7 ± 2%
  ΔpEC50: 1.88 ± 0.05 M
Rat IP3R1; IP3R1, paired comparisons
  pEC50(IP3)-pKD(heparin): 2.08 ± 0.02
Mouse IP3R2; [7]
  KD for heparin (Schild plot): 22 µg/mL
  slope of the Schild plots: 0.97 ± 0.06
Mouse IP3R2; IP3R2, heparin 800 μg·mL^−1
  ΔMax: −4 ± 2%
  ΔpEC50: 1.49 ± 0.09 M
Mouse IP3R2; IP3R2, paired comparisons
  pEC50(IP3)-pKD(heparin): 2.16 ± 0.09
Rat IP3R3; [8]
  KD for heparin (Schild plot): 2.1 µg/mL
  slope of the Schild plots: 0.98 ± 0.04
Rat IP3R3; IP3R3, IP3-evoked Ca^2+ release
  slope of the Schild plots: 1.14 ± 0.41
Rat IP3R3; IP3R3, IP3-evoked Ca^2+ release, 40% Ca^2+ release
  KD for heparin (Schild plot): 2.8 µg/mL
Rat IP3R3; IP3R3, heparin 400 μg·mL^−1
  ΔMax: −3 ± 3%
  ΔpEC50: 2.34 ± 0.07 M
Rat IP3R3; IP3R3, paired comparisons
  pEC50(IP3)-pKD(heparin): 1.11 ± 0.08
[3]
  affinity of the NT for heparin relative to that measured in functional analyses / full-length IP3R: up to 2000 fold
